From US20250314636A1, “METHOD OF PREPARING AND EXPANDING A POPULATION OF IMMUNE CELLS FOR CANCER THERAPY, POTENCY ASSAY FOR TUMOR RECOGNITION, BIOLOGICAL VACCINE PREPARATION AND EPITOPETARGET FOR ANTIBODIES” (FUNDAÇÃO D. ANNA DE SOMMER CHAMPALIMAUD E DR. CARLOS MONTEZ …, priority 2022, published 2025)
Where “and” joins values, the source holds several entries; their conditions need not be identical. Equal values may be shown once. Entries after “also recorded” stand apart in the source; their conditions may differ.

Columns and labels:
NRLP3 pathway = test: Testing of the NRLP3 pathway: KRAS peptide recognition by TIL expanded with or without MCC950; assay type: cell-based, human; details: TIL expanded with cardiolipin in presence of MCC950 (10 uM/mL)
Experimental: The number of peptide targets recognized as well as the amount of IFN-γ in pg/10e^4 TIL/target/7 days was analyzed and compared in the cardiolipin-positive versus negative group testing with Human IFN-γ ELISA basic kit (HRP).
Since cardiolipin has been reported to activate the NRLP3 inflammasome, aliquots of these same TIL preparation were expanded and the absence or presence of the NRLP3 inhibitor (MCC950) was investigated.

TIL [1] = test: Peptide recognition assay in TIL (IFN-γ ELISA / IL-17 in supernatant, 7 days); assay type: cell-based, human
Experimental: Peptides from tumor-associated antigens (TAAs), listed in Table 5 were placed at 1 ug/well in duplicates using anti-CD3 at 30 ng/mL as well as PHA at 5 μg/mL as positive controls.
The differences in TIL versus PBMCs can also be defined by peptide reactivity. 10e^4 TIL or 10e^4 PBMC/well were co-cultured with the peptides listed in Table 11 below for 7 days and the supernatants were tested for IFN-γ production.

[2] = system: human IgG in serum from patients with pancreatic cancer; test: ELISA of serum IgG binding to MUC4 epitope PVTSLSSVSTGDTTP (OD 405 nm); details: sera from patient S1 and S15, dilutions 1:2 and 1:10
Description: The MUC4 peptide is targeted by human IgG in serum from patients with cancer. […] The epitope PVTSLSSVSTGDTTP was linked to an ELISA plate via a streptavidin-biotin scaffold and tested for IgG recognition in serum from different patients with pancreatic cancer. The optical density (OD) read at 405 nm wavelength was used to detect IgG binding in sera from patients showing that some individuals have a higher IgG concentration to this epitope as compared to other patients, some patients have no IgG reactivity at all showing that there is individual IgG reactivity to this distinct MUC4 epitopes. The anti-human IgG directed antibody A2064 clone GG-5 from Sigma-Aldrich coupled to Alkaline-Phosphatase was used to detect epitope reactivity. The assay layout and reactivity reading are shown in Tables 12 and 13 (layouts and ODs, respectively) below.
Sera from different patients with PDAC (labeled as S1-S15) were incubated with the target epitope at different dilutions in phosphate-buffered saline (PBS) (1:2 and 1:10) and reactivity was tested based on the OD reading.

TIL [3] = test: Treg detection assay; assay type: cell-based, human; details: TIL with or without cardiolipin
Experimental: Briefly, cells were stained extracellularly with CD3 PE (clone UCHT-1, BD 555749), CD4 V450 (clone RPA-T4, BD 561838), CD8 APC-Cy7 (clone SK1, BD 557834), CD25 PE-Cy7 (clone 2A3, BD 335824), CD127 APC (clone R34.34, Beckman Coulter B42026) for 15 minutes in ice and then washed and permeabilized using Biolegend's True-Nuclear Transcription Factor Buffer Set according to manufacturer's instructions.
Cells were then stained intracellularly with FOXP3 Alexa488 antibody (clone 259D/C7, BD 560047) or an IgG1 isotype control Alexa 488 (BD 557702), and CD3 PE (clone UCHT-1, BD 555749). Tregs cells were identified by flow cytometry as CD3^+ CD4^+ CD25^high CD127^−FoxP3^+).

TIL [4] = test: CD107a assay; assay type: cell-based, human; details: TIL with or without cardiolipin
Experimental: Briefly, positive control cells were stimulated with 1 μg/mL of PMA; non-stimulated cells served as the control and data were performed in triplicates. Both stimulated and non-stimulated cells were incubated with a protein transport inhibitor containing monensin (BD, 51-2092kz) and CD107a PE antibody (clone H4A3, BD 555801) for 2 hours. Then an extracellular staining was performed using CD3 PE-Cy7 (clone UCHT1, BD 563423), CD4 V450 (clone RPA-T4, BD 561838) and CD8 APC-Cy7 (clone SK1, BD 557834). Control cells are PBMCs that had been cultured for 48-72 hours in the presence of 300 IU/mL IL-2 and 50 IU/mL IL-15. The assay is considered as positive if the positive control cells (PMA stimulated) have at least 2× the SD of the triplicates of the negative control.

PBMCs = test: Percentage of γδ T-cells in healthy individuals PBMCs expanded in presence or absence of cardiolipin; assay type: cell-based, human
Experimental: PBMCs of healthy individuals expanded in the presence of cardiolipin without interleukins increased the frequency of γδ T-cells (Table 4).
(§1) TIL and PBMCs were analyzed using several DuraClone (Beckman Coulter) Panels, always with addition of the LIVE/DEAD™ Fixable Yellow Dead Cell Stain Kit: DuraClone IM T-cell Subsets tube adding LAG-3 BV650 and CD95 BV785 and Duraclone IM TCRs tube. Besides, another panel with commercially available antibodies were used, which included CD4 Pacific Blue, CD8 KromeOrange, CXCR3 BV650, CD95 BV785, CD103 FITC, CCR7 PE, CCR4 PE/Dazzle, TCR pan-γ/δ PC5.5, CCR6 PC-7, CCR9 Alexa Fluor 647, CD45RA AF700, CD3 APC-A750 and LIVE/DEAD™ Fixable Yellow Dead Cell Stain Kit. After 15 minutes incubation, T-cells and PBMCs were washed in PBS-2% FBS and acquired using a CytoFlex LX flow cytometer from Beckman Coulter. Analysis was performed using FlowJo software.

TIL [5] = test: IFN-γ induction assay / cytokine production of TIL after anti-CD3 crosslinking, 24 h, 10e5 cells; assay type: cell-based, human; details: TIL with or without cardiolipin
Experimental: In table 3, TIL were seated in at 10e^5 cells/well in triplicates in medium containing IL-2/IL-7/IL-15+cardiolipin (medium) or in IL-2/IL-7/IL-15+cardiolipin plus anti-CD3-IgG1 at 30 ng/mL to crosslink the T-cell receptor.
Supernatants were harvested after 24 hours in order to test for maximal T-cell activation defined in 24 hrs./10e^5 cells for comparison. The delta between maximal stimulation (b) and constitutive cytokine production (A) is summarized in row “delta (B-A)”.
This assay is used to measure the IFN-γ production after anti-CD3 induced activation during 24 h in 10^5 cells.

TIL [6] = test: Flow cytometric analysis of TIL and PBMC phenotype; assay type: cell-based, human
Experimental: Different phenotypes in TIL were observed, when using different tumor regions in the three-expansion step herein proposed.
γδ T-cells were negatively sorted using a commercial kit from Stem Cell. Purity of negatively sorted cells was tested by flow cytometry using the DURAclone panel IM TCRs.
as §1

[7] = system: PBMCs from healthy individuals; test: Cardiolipin titration: IFN-γ and IL-17A production in PBMCs and whole blood; assay type: cell-based, human; details: 250 nM cardiolipin, PBMCs from healthy individuals stimulated with OKT3 (30 ng/mL)
TIL [8] = test: RNA sequencing, differential gene expression in TIL grown with and without cardiolipin; assay type: cell-based, human; details: TIL expanded with vs without cardiolipin, DESeq2 FDR <0.10
Experimental: RNA from TIL was isolated using the commercially available RNeasy Mini Kit (Qiagen) and sequencing was done using the Illumina NovaSeq 6000 system with 100 bp paired end read lengths. Adapters were removed.
Transcriptome sequencing data alignment was performed using STAR two-pass method to human genome build hg19. Duplicates were marked using the Picard's MarkDuplicates tool and reads were split using the GATK SplitNCigarReads tool and variants were called using Varscan2. STAR-Fusion was used to identify candidate fusion transcripts and its output was annotated using AGFusion.
RNA sequencing was performed in seven of TIL expansions (i.e. from seven individual patients) with or without cardiolipin and tested for differential gene expression (FIG. 15). Genes with extremely low counts across samples were removed because they provide little evidence for differential expression and may interfere with some of the statistical approximations used.

Molecule: CC(C)(O)c1coc(S(=O)(=O)NC(=O)Nc2c3c(cc4c2CCC4)CCC3)c1 [MCC950]
- tumor associated antigen (KRAS epitope) recognition in TIL (NRLP3 pathway): statistically reduces the function of cardiolipin; also recorded: reduces the tumor associated antigen recognition in TIL

Molecule: PVTSLSSVSTGDTTP [MUC4-P3 [Mut][WT]]
- Pancreatic TIL D1599 IFN-y (TIL [1]; Pancreatic TIL D1599): 0 pg/mL
- Pancreatic TILD1599 IL 17 (TIL [1]; Pancreatic TIL D1599): 2 pg/mL
- IgG binding reactivity to the nominal MUC4 epitope [2]: strong IgG binding reactivity

Molecule: cardiolipin
- regulatory T-cells (Treg) in TIL (TIL [3]): no differences
- CD107 induction in TIL (TIL [4]): no differences
- recognition of commonly shared tumor-associated antigens (KRAS, mesothelin) by TIL, IFN-γ production (TIL [1]; TIL expanded in cardiolipin): recognized a high number of KRAS as well as mesothelin targets
- frequency of γδ T-cells (PBMCs; PBMCs of healthy individuals expanded with cardiolipin without interleukins): increased
- Percentage of γδ T-cells, w/CL (PBMCs; healthy individuals PBMCs, presence of cardiolipin, without interleukins, single donors, listed as CL): 10.5% and 9.32% and 26% and 10.9% and 22.9%
- Percentage of γδ T-cells, w/CL, Average (PBMCs; healthy individuals PBMCs, presence of cardiolipin, average of donors): 15.92%
- IFN-γ production in TIL (TIL [5]): no differences
- IL-17 production in TIL (TIL [5]): no differences
- T-cell maturation, activation, or exhaustion markers (TIL [6]; CD4+, CD8+, double-positive, double-negative or γδ+ TIL, with vs without cardiolipin): not observed
- frequency of γδ TIL (TIL [6]; TIL expanded with IL-7, IL-15, IL-21 with vs without cardiolipin): increased
- production of IFN-γ [7]: favorable production of IFN-γ
- CXCL9 gene expression (TIL [8]): over-expressed
- CXCL10 gene expression (TIL [8]): over-expressed
- KBTBD11 gene expression (TIL [8]): statistically reduced
